# Assay results: paper PMC2965873, “Phase I and pharmacological study of the broad-spectrum tyrosine kinase inhibitor JNJ-26483327 in patients with advanced solid tumours” (British Journal of Cancer, 2010)
# Key:
# EGFR kinase = molecular target: EGFR kinase; set-up: method as in Johnson & Johnson, data on file; details: in vitro; ref Johnson & Johnson, data on file; cited from earlier work
# [1] = test system: patients with advanced solid tumours; experiment: phase I safety, DLT and MTD; format: in vivo
# Protocol: JNJ-26483327 was supplied by Johnson & Johnson Pharmaceutical Research and Development, Beerse, Belgium as 10 or […] oral solution for doses ⩽1200 mg, or capsules of 50, 100 or 300 mg for doses ⩾1500 mg. Medication was taken in combination with food BID with 12 h intervals. A cycle was defined as 28 days of treatment.
# The study followed an accelerated-escalation design. Initial cohorts consisted of one patient with dose doublings between cohorts in the absence of grade ⩾2 toxicity according to the National Cancer Institute Common Toxicity Criteria version 3.0 during the first cycle (http://ctep.cancer.gov/protocolDevelopment/electronic_applications/docs/ctcaev3.pdf). Once grade ⩾2 considered drug-related toxicity occurred during the first cycle, two additional patients were enrolled at that dose level with subsequent cohorts in accordance with a conventional dose-escalation (3+3) model. DLT was defined as any grade 3 or 4 non-haematological toxicity, except for nausea, vomiting or diarrhoea responsive to treatment; grade 3 skin rash/acne responsive to treatment, alopecia and isolated grade 3 GGT elevations; need for loperamide for >7 days to treat or prevent grade ⩾2 diarrhoea; need for continuous administration of 5HT-3 antagonists for >7 days to treat or prevent grade ⩾2 nausea or vomiting; a relative decrease of LVEF on MUGA scan of >20% compared with baseline; any grade 4 haematological toxicity or treatment interruptions of >14 days for grade ⩾2 toxicity in cycle 1.
# If during the conventional escalation stage no DLT occurred, the dose for the next cohort was incremented with 20–100%. If DLT was observed during cycle 1 in one of three patients, an additional three patients were enrolled at that dose level. If ⩾2 out of 6 patients experienced DLT, the MTD was exceeded and three more patients were enrolled at the next lower dose level, unless already six patients had been accrued at that dose. The MTD was defined as the highest dose at which less than one-third of the patients experienced DLT.
# (§1) Prior to therapy, a complete medical history was taken and a physical examination was performed. A complete blood cell (CBC) count, WBC count and differential and serum biochemistry including lipid profile and coagulation tests were performed, as were urinalysis, a 12-lead electrocardiogram (ECG) and MUGA scanning. Weekly evaluations during the first cycle, every other week during the second cycle and monthly thereafter included history, physical examination, adverse event assessment, CBC, WBC+differential, serum chemistry, ECG and urinalysis. An ECG was performed predose and 1, 2, 4, 8 and 24 h postdose on days 1 and 28. Follow-up of LVEF by MUGA scanning was performed at the end of the first and second cycle. Tumour measurements were performed at baseline and during every other cycle. Response was assessed according to RECIST ([Therasse et al, 2000]).
# Fyn = test system: Fyn; set-up: method as in Johnson & Johnson, data on file; details: Src family; ref Johnson & Johnson, data on file; read-out: IC50 range; cited from earlier work
# advanced solid tumours = experiment: anti-tumour activity (RECIST); format: in vivo, human; details: 19 patients
# Protocol: as §1
# [2] = test system: mutationally activated EGFR kinases; set-up: method as in Johnson & Johnson, data on file; details: in vitro, several mutants; ref Johnson & Johnson, data on file; cited from earlier work
# c-Src = test system: c-Src; set-up: method as in Johnson & Johnson, data on file; details: ref Johnson & Johnson, data on file; cited from earlier work
# Flt3 = test system: Flt3; set-up: method as in Johnson & Johnson, data on file; details: ref Johnson & Johnson, data on file; cited from earlier work
# [3] = phase I plasma pharmacokinetics; format: in vivo, human
# Protocol: For pharmacokinetic analysis, blood samples (3 ml) were collected before dosing and 0.5, 1, 2, 3, 4, 6, 8 and 24 h after drug administration on days 1 and 28 and predose, 0.5, 1, 2, 4 and 6 h postdose on day 15 of the first cycle and day 28 of the second cycle. Furthermore, trough PK samples were taken before drug administration on days 8 and 22. Blood samples were collected and protected from light in EDTA-Vacutainer® tubes and plasma was separated by centrifugation and stored at −20°C within 2 h of collection. Plasma concentrations of JNJ-26483327 were determined by validated, selective and sensitive liquid chromatography–mass spectrometry bioanalytical method.
# Graphical analysis was performed using dose-normalised Cmax as well as AUC of days 1 and 28 for exploration of dose proportionality across doses.
# The pharmacokinetic analysis and descriptive statistics were performed using PKAA 2.00 (developed for J&JPRD). PKAA 2.00 uses WinNonLin 5.2.1. Elimination rate constants (λz) were calculated as the negative of the slope of the terminal log-linear segment of the plasma concentration–time curves. The range of data used for each subject and dose were determined by visual inspection of a semi-logarithmic plot of concentration vs time. At least three data points were used to estimate λz. All PK calculations and figures used validated software.
# [4] = set-up: method as in Johnson & Johnson, data on file; details: ref Johnson & Johnson, data on file; cited from earlier work
# Lyn = test system: Lyn; set-up: method as in Johnson & Johnson, data on file; details: Src family; ref Johnson & Johnson, data on file; read-out: IC50 range; cited from earlier work
# Her2 = test system: Her2; set-up: method as in Johnson & Johnson, data on file; details: ref Johnson & Johnson, data on file; cited from earlier work
# xenograft mouse models = test system: xenograft mouse models; set-up: method as in Johnson & Johnson, data on file; details: preclinical studies; ref Johnson & Johnson, data on file; cited from earlier work
# Her4 = test system: Her4; set-up: method as in Johnson & Johnson, data on file; details: ref Johnson & Johnson, data on file; read-out: IC50 range; cited from earlier work
# Yes = test system: Yes; set-up: method as in Johnson & Johnson, data on file; details: Src family; ref Johnson & Johnson, data on file; read-out: IC50 range; cited from earlier work
# healthy male volunteers = test system: healthy male volunteers; set-up: method as in preceding study in healthy male volunteers; details: single doses up to and including 200 mg; ref preceding study in healthy male volunteers; cited from earlier work
# [5] = set-up: method as in Johnson & Johnson, data on file; details: preclinical studies; ref Johnson & Johnson, data on file; cited from earlier work
# RET-receptor kinase = molecular target: RET-receptor kinase; set-up: method as in Johnson & Johnson, data on file; details: in vitro; ref Johnson & Johnson, data on file; cited from earlier work
# [6] = 800 mg BID, day 1, n=3, mean±s.d.
# [7] = 800 mg BID, day 28 (steady state), n=2, mean
# [8] = 1200 mg BID, day 1, n=3, mean±s.d.
# [9] = 1200 mg BID, day 28 (steady state), n=2, mean
# [10] = 1500 mg BID, day 1, n=6, mean±s.d.
# [11] = 1500 mg BID, day 28 (steady state), n=6, mean±s.d.
# [12] = 2100 mg BID, day 1, n=3, mean±s.d.
# [13] = 2100 mg BID, day 28 (steady state), n=2, mean
structure (smiles),measurement,setting,value
COc1cc2ncnc3c2cc1OCCCCCN(C)Cc1ccc(Br)cc1N3 [JNJ-26483327],IC50,EGFR kinase,< 10 nM
same,"Anaemia: patients, Total %",[1]; in vivo,15.8%
same,"Anaemia: patients, Total n",[1]; in vivo,3
same,"Anorexia: patients, Total %",[1]; in vivo,42.1%
same,"Constipation: patients, Total %",[1]; in vivo,10.5%
same,"Constipation: patients, Total n",[1]; in vivo,2
same,"Diarrhoea: patients, Total n",[1]; in vivo,12
same,"Dry skin: patients, Total %",[1]; in vivo,10.5%
same,"Dry skin: patients, Total n",[1]; in vivo,2
same,"Dyspepsia: patients, Total %",[1]; in vivo,10.5%
same,"Dyspepsia: patients, Total n",[1]; in vivo,2
same,"Dysphonia: patients, Total %",[1]; in vivo,15.8%
same,"Dysphonia: patients, Total n",[1]; in vivo,3
same,"Fatigue: patients, Total %",[1]; in vivo,47.4%
same,"Fatigue: patients, Total n",[1]; in vivo,9
same,"Nausea: patients, Total %",[1]; in vivo,68.4%
same,"Nausea: patients, Total n",[1]; in vivo,13
same,"Pain: patients, Total %",[1]; in vivo,10.5%
same,"Pain: patients, Total n",[1]; in vivo,2
same,"Rash: patients, Total %",[1]; in vivo,57.9%
same,"Rash: patients, Total n",[1]; in vivo,11
same,"Skin discolouration: patients, Total %",[1]; in vivo,5.3%
same,"Skin discolouration: patients, Total n",[1]; in vivo,1
same,"Skin exfoliation (palms): patients, Total %",[1]; in vivo,5.3%
same,"Skin exfoliation (palms): patients, Total n",[1]; in vivo,1
same,"Vomiting: patients, Total %",[1]; in vivo,52.6%
same,"Vomiting: patients, Total n",[1]; in vivo,10
same,"Weight decreased: patients, Total %",[1]; in vivo,10.5%
same,"Weight decreased: patients, Total n",[1]; in vivo,2
same,"gastrointestinal side effects, incidence",[1]; in vivo,95%
same,hypertension,[1]; in vivo,no hypertension was noted
same,patients with grade 2 anaemia,[1]; in vivo,three
same,"skin toxicity, overall incidence",[1]; in vivo,68%
same,subjects with a significant decrease in LVEF,[1]; in vivo,None
same,recommended dose for further studies (phase 2 dose),"[1]; in vivo, po",1500 mg BID
same,maximum tolerated dose (MTD),"[1]; oral, continuous, 28-day cycles",1500 mg BID
same,IC50,Fyn,11 to 99 nM
same,patients with stable disease lasting more than two cycles,advanced solid tumours; 100–2100 mg BID,six
same,patients with stable disease,advanced solid tumours; more than two cycles,32%
same,IC50,[2],< 10 nM
same,IC50,c-Src,100 to 1000 nM
same,IC50,Flt3,100 to 1000 nM
same,CL/F,[3]; [6],86.3 ± 33.5 L/h
same,Cmax,[3]; [6],2210 ± 593 ng/mL
same,Vdz/F,[3]; [6],1021 ± 401 L
same,t1/2,[3]; [6],8.4 ± 1.8 h
same,tmax,"[3]; 800 mg BID, day 1, n=3, median (min–max)",2.03 (2.00–3.02) h
same,AUC (AUCtau),[3]; [7],10 623 ng h ml^−1
same,CL/F,[3]; [7],76.4 L/h
same,Cmax,[3]; [7],2390 ng/mL
same,tmax,"[3]; 800 mg BID, day 28 (steady state), n=2, median (min–max)",1.52 (1.00–2.03) h
same,CL/F,[3]; [8],47.4 ± 35.3 L/h
same,Cmax,[3]; [8],3707 ± 1927 ng/mL
same,Vdz/F,[3]; [8],342 ± 212 L
same,t1/2,[3]; [8],5.2 ± 1.7 h
same,tmax,"[3]; 1200 mg BID, day 1, n=3, median (min–max)",3.00 (2.00–6.00) h
same,AUC (AUCtau),[3]; [9],21 230 ng h ml^−1
same,CL/F,[3]; [9],88.4 L/h
same,Cmax,[3]; [9],2750 ng/mL
same,tmax,"[3]; 1200 mg BID, day 28 (steady state), n=2, median (min–max)",1.00 (1.00–1.00) h
same,CL/F,[3]; [10],144 ± 104 L/h
same,Cmax,[3]; [10],2361 ± 1765 ng/mL
same,Vdz/F,[3]; [10],1038 ± 799 L
same,t1/2,[3]; [10],4.8 ± 0.5 h
same,tmax,"[3]; 1500 mg BID, day 1, n=6, median (min–max)",4.00 (2.00–4.03) h
same,CL/F,[3]; [11],286 ± 540 L/h
same,Cmax,[3]; [11],3375 ± 2116 ng/mL
same,tmax,"[3]; 1500 mg BID, day 28 (steady state), n=6, median (min–max)",3.99 (3.00–12.00) h
same,CL/F,[3]; [12],3055 ± 5099 L/h
same,t1/2,[3]; [12],6.7 ± 1.7 h
same,Cmax,"[3]; 2100 mg BID, day 1, n=4, mean±s.d.",2213 ± 2983 ng/mL
same,tmax,"[3]; 2100 mg BID, day 1, n=4, median (min–max)",3.54 (2.00–4.08) h
same,AUC (AUCtau),[3]; [13],8467 ng·h/mL
same,CL/F,[3]; [13],3087 L/h
same,Cmax,[3]; [13],1236 ng/mL
same,tmax,"[3]; 2100 mg BID, day 28 (steady state), n=2, median (min–max)",5.00 (4.00–6.00) h
same,dose proportionality of pharmacokinetics,[3]; Cmax and AUC at steady state,dose proportional up to 1500 mg
same,terminal half-life,[3]; all dose levels,5 to 8 h
same,peak concentration (average),"[3]; day 1, 1200 mg",~4 μg ml^–1
same,Cmax,"[3]; day 1, 1500 and 2100 mg dose groups",~2 μg ml^–1
same,time to reach Cmax,"[3]; first administration, capsule formulation (dose levels 1500 and 2100 mg)",up to 4 h
same,time to reach Cmax,"[3]; first administration, liquid formulation (dose levels 800 and 1200 mg)",2 to 3 h
same,time to reach Cmax,"[3]; steady state (days 15 and 28), capsule formulation",2 to 5 h
same,time to reach Cmax,"[3]; steady state (days 15 and 28), liquid formulation",1 to 2 h
same,oral bioavailability,[4],~80%
same,IC50,Lyn,11 to 99 nM
same,IC50,Her2,100 to 1000 nM
same,anti-cancer activity,xenograft mouse models,anti-cancer activity was observed
same,IC50,Her4,11 to 99 nM
same,IC50,Yes,11 to 99 nM
same,safety and tolerability,healthy male volunteers,safe and well tolerated
same,tissue distribution profile,[5],passage of the blood–brain barrier
same,IC50,RET-receptor kinase,< 10 nM
